Measurements: ChEMBL document CHEMBL1201862, “PubChem BioAssay data set” (2004)
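Where inhibition never reached the appropriate level, the endpoint shown equals the highest concentration tested. Otherwise, values were interpolated linearly from a five-concentration, 48-hour dose response in 96-well plates. Abbreviation: GI50, concentration required for 50% inhibition of growth.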 Active and inactive are the calls of the source. Cut-off read from the data, not from the text of the source: active = GI50 up to about 1.1 µM and inactive = higher.

Columns and labels:
Assay in all cases: NCI anticancer screen, dose series, 48 h
NCI-H226 = tested on: NCI-H226
OVCAR-5 = tested on: OVCAR-5
SK-MEL-2 = tested on: SK-MEL-2
KM12 = tested on: KM12
MDA-MB-435 = tested on: MDA-MB-435
RPMI-8226 = tested on: RPMI-8226
RXF 393 = tested on: RXF 393
UO-31 = tested on: UO-31
MCF7 = tested on: MCF7
CAKI-1 = tested on: CAKI-1
MOLT-4 = tested on: MOLT-4
LOX IMVI = tested on: LOX IMVI
HCT-116 = tested on: HCT-116
UACC-257 = tested on: UACC-257
UACC-62 = tested on: UACC-62
SR = tested on: SR
EKVX = tested on: EKVX
DU-145 = tested on: DU-145
M14 = tested on: M14
HOP-92 = tested on: HOP-92

Measured: GI50

COc1cccc(C2c3cc4c(cc3OC(Nc3ccccc3)C2C)OCO4)c1O (stereo not given)
inactive: NCI-H226 12 µM | OVCAR-5 30.1 µM | SK-MEL-2 13.9 µM | KM12 4.63 µM | MDA-MB-435 2.15 µM | RPMI-8226 6.43 µM | RXF 393 5.05 µM | UO-31 7.06 µM | MCF7 6.68 µM | CAKI-1 13.5 µM | MOLT-4 3.3 µM | LOX IMVI 5.21 µM | HCT-116 7.6 µM | UACC-257 10.9 µM | UACC-62 9.02 µM | SR 3.66 µM | EKVX 11.1 µM | DU-145 15.4 µM | M14 3.84 µM | HOP-92 2.48 µM

Cc1ccc2c(c1)C(C(=O)N[C@@H]1C(=O)N3[C@@H]1SC(C)(C)[C@@H]3C(=O)O)OCCC2 (stereo not given in full)
inactive: NCI-H226 > 100 µM | OVCAR-5 > 100 µM | SK-MEL-2 > 100 µM | KM12 > 100 µM | MDA-MB-435 > 100 µM | RPMI-8226 > 100 µM | RXF 393 > 100 µM | UO-31 > 100 µM | MCF7 > 100 µM | CAKI-1 > 100 µM | MOLT-4 > 100 µM | LOX IMVI > 100 µM | HCT-116 > 100 µM | UACC-257 > 100 µM | UACC-62 > 100 µM | SR > 100 µM | EKVX > 100 µM | DU-145 > 100 µM | M14 > 100 µM | HOP-92 > 100 µM

COC1OC(C(=O)O)C2OC(C)(C)OC12 (stereo not given)
inactive: NCI-H226 > 100 µM | OVCAR-5 > 100 µM | SK-MEL-2 > 100 µM | KM12 > 100 µM | MDA-MB-435 > 100 µM | RPMI-8226 > 100 µM | RXF 393 > 100 µM | UO-31 > 100 µM | MCF7 > 100 µM | CAKI-1 > 100 µM | MOLT-4 > 100 µM | LOX IMVI > 100 µM | HCT-116 > 100 µM | UACC-257 > 100 µM | UACC-62 > 100 µM | SR > 100 µM | EKVX > 100 µM | DU-145 > 100 µM | M14 > 100 µM | HOP-92 > 100 µM
